Measured values taken from EP0702683B1, “06-SUBSTITUTED GUANINE DERIVATIVES, A PROCESS FOR THEIR PREPARATION AND THEIR USE IN TREATING TUMOUR CELLS” (Cancer Research Technology Limited, priority 1993, dated 1994).
“Also recorded” adds a separate entry of the source. Like-named read-outs stand apart in the source and are kept apart here.

What was measured:
[1] = Growth inhibition of V79 cells by inactivator alone; assay type: cell-based, Chinese hamster; conditions: chinese hamster, v79 cells, Figure 5
Experimental: (§1) In order to assess the effects on cell growth alone, Xeroderma pigmentosum cells and Chinese Hamster V79 cells were exposed to increasing concentrations (up to 600µM) of selected inactivators for 2h at 37°. In some cases, the inactivators were allowed to undergo hydrolysis at 37°C for 20 hours and then added to […] in order to assess the extent to which the decomposition products of the agents might inhibit cell growth. After 6 days the extent of cell growth was determined as described above.

XP cells = test: Growth inhibition of Xeroderma pigmentosum cells by inactivator alone; assay type: cell-based, human; conditions: inactivator alone, Figure 6, compared with V79 cells, in words
Experimental: as §1

ATase [2] = target: T1, ATase (Homo sapiens, UniProt P16455); test: In vitro ATase inactivation assay with purified recombinant human ATase; assay type: biochemical; parameters: made in house; conditions: for effectiveness in the in vitro ATase inactivation assay compared with BeG: Figure 1, in words
T1 sequence (P16455 1-207): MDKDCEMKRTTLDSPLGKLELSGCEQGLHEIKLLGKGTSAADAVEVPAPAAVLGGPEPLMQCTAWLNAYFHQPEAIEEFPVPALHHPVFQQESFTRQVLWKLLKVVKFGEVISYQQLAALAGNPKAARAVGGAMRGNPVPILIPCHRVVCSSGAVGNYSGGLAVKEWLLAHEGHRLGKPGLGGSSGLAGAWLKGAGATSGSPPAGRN
Experimental: The cDNA cloning and overexpression of the human ATase has been reported previously^23. Purification of the recombinant proteins was achieved either by affinity chromatography through a DNA-cellulose column as described by Wilkinson et al.,^25, 26, or by DEAE-cellulose ion-exchange chromatography. For the latter, the ATase protein was partially purified by ammonium sulphate precipitation (30 - 60%) and dialysed against 10 mM Tris-HCl pH 7.5, 1 mM DTT, 2 mM EDTA, 10% glycerol, before loading on a DEAF-cellulose column. The ATase was then eluted with a 0-0.1 M NaCl gradient.
Compounds to be tested were dissolved in DMSO to a final concentration of 10 mM and diluted just before use in buffer I containing 1 mg/ml bovine serum albumin (IBSA). Recombinant ATase was diluted in IBSA and titrated in order that the reaction be conducted under ATase, and not substrate, limiting conditions. In each assay, fixed amounts of ATase (60-75 fmol) were incubated with varying amounts of 0^6-benzylguanine, or test compound in a total volume of 200 µl of IBSA containing 10 µg of calf thymus DNA at 37°C for 1 hour. The [^3H]-methylated-DNA substrate (100 µl containing 6.7 µg of DNA and 100 fmol of 0^6-methylguanine) was added and incubation continued at 37° for 1 hour, until the reaction was completed. Following acid hydrolysis of the DNA as previously described^21 the [^3H]-methylated protein was recovered and quantitated by liquid scintillation counting. Samples were typically assayed in duplicate and experiments repeated several times. I50 is the concentration of inactivator required to produce a 50% reduction in ATase activity.

Raji cells = test: Sensitization of Raji cells to temozolomide (XTT assay); assay type: cell-based, human
Experimental: Following a 2 hour incubation at 37°C, medium containing either increasing doses of BCNU, temozolomide or equivalent vehicle was added and the cells allowed to grow for 6 days. At this time XTT solution was added and the cells incubated for a further 4 hours at 37°C. The resulting red/orange formazan reaction product was quantified by measuring absorption at 450nm on a microtitre platereader.

ATase [3] = test: Depletion of ATase activity in A375 tumour xenografts; assay type: in vivo, nude mice; conditions: 30 mg/kg, 2 or 24 hours after administration, Fig. 8, in words
Experimental: (§2) 0X6 OPT, England (OLAC mice). […] For this reason lower doses were administered.
A375M (human melanoma) cells were grown in DMEM containing 10% fetal bovine serum. The cells were prepared for in vivo inoculation by incubation with 0.01% trypsin.
Cells (10^6) in 100µl of PBS were injected subcutaneously into the right-hand flank of 8-10 week old nu/nu athymic mice. These cells were allowed to develop into a tumour for 3-4 weeks for passaging into experimental animals. Tumour blocks measuring 2mm x 2mm x 2mm were implanted subcutaneously on the right hand flank. These animals were ready for use in inactivator experiments in 7-10 days.

[4] = Toxicity of inactivator in combination with BCNU in xenograft-bearing mice (survival); assay type: in vivo, nude mice; conditions: Figs. 9-13, in words
Experimental: as §2
Xenograft tumour measurements were taken every 1-2 days by workers using digital calipers. Tumour volume was calculated using the formula (h x w x 1) π/6. The experimental animals were also weighed every 1-2 days. Measurements continued until tumours in the control animals reached the maximum allowable volume (i.e. 1cm x 1cm x 1cm).

human bone marrow cells = test: Sensitization of bone marrow cells to temozolomide (GM-CFC assay); assay type: cell-based; conditions: for sensitization effect on human bone marrow cells to temozolomide, compared with 0^6-benzylguanine: 10µM inactivator, Figure 14, in words
From the text: For the granulocyte/macrophage colony-forming cell (GM-CFC) assay primary human bone marrow samples were obtained from patients undergoing cardiothoracic surgery. […] The colonies represented precursor cells of the granulocyte/macrophage lineage (huGM-CFC). Survival was expressed as a % of the number of colonies at zero dose temozolomide.

[5] = Inactivator toxicity in bone marrow cells (GM-CFC colonies, inactivator alone); assay type: cell-based, human; conditions: human, bone marrow gm-cfc, inactivator 10uM, read-out: No. of colonies as % of control (ie no inactivator)
From the text: (§3) For the granulocyte/macrophage colony-forming cell (GM-CFC) assay primary human bone marrow samples were obtained from patients undergoing cardiothoracic surgery. […] The colonies represented precursor cells of the granulocyte/macrophage lineage (huGM-CFC). […]

bone marrow cells = test: as above; assay type: cell-based, human; conditions: 10uM, 5 patients A - E, Table 7, in words
From the text: as §3

Nc1nc(OCc2ccco2)c2nc[nH]c2n1 [B.4203, O^6-furfurylguanine]
selectivity ratio ([1]; read-out: growth inhibitory dose in V79 cells relative to the I50 dose): ≥ 100 | MCC at 2 h ([1]; inactivator alone, up to 600µM, 2h at 37°, read-out: doses producing some growth inhibition of V79 cells): > 100 µM | susceptibility of XP cells to the growth inhibitory effects of the inactivator (XP cells): as susceptible | IC50 (ATase [2]): 80 nM | effectiveness in the in vitro ATase inactivation assay compared with BeG (ATase [2]): not as effective as BeG

Nc1nc(OCc2cccs2)c2nc[nH]c2n1 [B.4205, O^6-thenylguanine]
sensitising Raji cells to the growth inhibitory effects of temozolomide, compared with BeG (Raji cells; 0.1uM inactivator, Figure 3, in words): more effective than BeG | dose response of sensitization of Raji cells to temozolomide (Raji cells; inactivator 0.1 to 5.0µM, Figures 3 and 4, in words): lack of dose response | susceptibility of XP cells to the growth inhibitory effects of the inactivator (XP cells): more sensitive than V79 cells | inactivating ATase in human melanoma xenografts grown in nude mice, compared with BeG (ATase [3]): as effective as BeG | toxicity in combination with BCNU in nude mice [4]: substantially less toxic; also recorded: very little effect | sensitization effect on human bone marrow cells to temozolomide, compared with 0^6-benzylguanine (human bone marrow cells; patient D): no differential | sensitization effect on human bone marrow cells to temozolomide, compared with 0^6-benzylguanine (human bone marrow cells; patients C & E): smaller sensitization effect than 0^6-benzylguanine | sensitization of GM-CFCs in human bone marrow samples to the toxic effects of temozolomide (human bone marrow cells; three samples tested (BeG: all three; B.4205: two of these), Fig. 14, in words): little or no sensitization | viability at 216 h, 10 µM ([5]; Patient A): 91% | viability at 216 h, 10 µM ([5]; Patient B): 46% | viability at 216 h, 10 µM ([5]; Patient C): 97% | viability at 216 h, 10 µM ([5]; Patient D): 118% | viability at 216 h, 10 µM ([5]; Patient E): 89% | toxic effect of inactivator alone on bone marrow cells, compared with 0^6-benzylguanine (bone marrow cells): comparable to those for 0^6-benzylguanine | IC50 (ATase [2]): 18 nM | effectiveness in the in vitro ATase inactivation assay compared with BeG (ATase [2]): considerably better
